From patent publication US20110124523A1, “High Throughput Method for Detecting Apoptosis of Embryonic Stages of Metazoan Helminthic Parasites” (INSTITUTE OF LIFE SCIENCES, priority 2009, published 2011)
“And” between values parts separate entries of the source, which are not always exact repeats. Equal values may be shown once.

Legend:
[1] = test system: embryonic stages of S. digitata; experiment: Intra cellular expression of CED-3 protein, flow cytometry; assay type: cell-based, Setaria digitata; settings: 24 hr
Experimental: Adult female filarial worms Setaria digitata were collected from the peritoneum of cattle, slaughtered at a nearby abattoir in sterile Hanks Balanced Salt Solution (HBSS) medium (Sigma H 2387-1L) and transported to the laboratory in a sterile container. The medium containing 1% glucose (Sigma G 7528), Penicillin 100 units/ml, Streptomycin 100 μg/ml (Sigma P 4333). And Amphotericin-B 0.25 μg/ml (Sigma A 2942) was buffered with NaHCO3 (Sigma S 5761). About 5 to 7 worms were taken in a petridish, washed three times in medium, dissected into small pieces in 10 ml of medium under sterile conditions and incubated at 37° C. for 30 minutes to allow the release of embryonic stages (eggs and microfilariae) into the medium. The embryonic stages were harvested into sterile 15 ml. centrifuge tubes and washed three times by centrifuging at 300 g for 10 minutes each with medium and the final pellet was suspended in 1 ml. of RPMI-1640 medium (Sigma R 8005) supplemented with 10% FBS (Sigma F 2442) The number of embryonic stages of S. digitata in the above preparation were counted using light microscope, and the suspension was taken in RPMI-1640 medium containing 10% FBS at 1×10^5 embryonic stages/ml. One ml. each was dispensed into individual wells of a 24 well tissue culture plate. One set of wells was taken as untreated control containing only medium with 10% FBS. […] Motility of the Mf was scored under an inverted microscope. After appropriate treatment and incubation, each set of the cultured embryonic stages of S. digitata were harvested from the 24 well tissue culture plate separately in 15 ml. sterile centrifuge tubes, washed with PBS twice and stained as per requirement following manufacturer's instructions as described below. This was followed by two times washing with PBS and final suspension of the stained embryonic stages was taken in 0.5 ml of sheath fluid (BD Biosciences 342003) before their acquisition in the flow cytometer (BD FACS Calibur, Becten and Dickinson, USA). Analysis was performed on 10,000-acquired events depicted as Dot Plots and Histogram Plots using Cellquest Pro soft ware. All plots were representative of at least 3 experiments. The distinctly clustered populations obtained consistently in the Dot plots for the intra uterine embryonic stages of S. digitata (FIG. 1 a) were gated for Mfs (R-1) and eggs (R-2 and R-3) and analyzed for different assays for apoptosis as described below. After in vitro culture for 24 hours with apoptosis inducing reagents the embryonic stages were harvested in 15 ml, sterile centrifuge tubes and fixed for 60 minutes at 0° C. in 1% paraformaldehyde (Sigma P 6148) in PBS. The suspension was washed first with PBS and then with 1× permeabilisation buffer (eBioscience 00-8333-56) and finally resuspended in 100 μl of 1× permeabilisation buffer at 1×10^5 embryonic stages per ml. The intra cellular expression of CED-3 was scored by incubation of the fixed and permeabilised embryonic stages with primary goat antibodies—anti CED-3 (Santacruz sc-9192) followed by Probing with PE conjugated secondary anti goat IgG-PE (Santacruz sc-3747) antibodies. Incubation of both primary and secondary antibodies (both 1/100 diluted) was done successively in 1× permeabilisation buffer (e Bioscience 00-8333-56) for 1 hr and 45 minutes respectively. The suspension of stained embryonic stages was then washed with PBS twice and finally reading was taken by flow cytometry.

[2] = test system: embryonic stages of S. digitata; experiment: Mitochondrial depolarization, mitoscreen JC-1 staining; assay type: cell-based, Setaria digitata; settings: for GMI (Geometric Mean Intensity) of Fluorescence, Mitoscreen-jc-1 staining (Mitochondrial Depolarisation assay): 24 hr, depolarisation = reduction in GMI; for induction of mitochondrial depolarization (result in words): Mfs and eggs, mitoscreen JC-1 staining
Experimental: Adult female filarial worms Setaria digitata were collected from the peritoneum of cattle, slaughtered at a nearby abattoir in sterile Hanks Balanced Salt Solution (HBSS) medium (Sigma H 2387-1L) and transported to the laboratory in a sterile container. The medium containing 1% glucose (Sigma G 7528), Penicillin 100 units/ml, Streptomycin 100 μg/ml (Sigma P 4333). And Amphotericin-B 0.25 μg/ml (Sigma A 2942) was buffered with NaHCO3 (Sigma S 5761). About 5 to 7 worms were taken in a petridish, washed three times in medium, dissected into small pieces in 10 ml of medium under sterile conditions and incubated at 37° C. for 30 minutes to allow the release of embryonic stages (eggs and microfilariae) into the medium. The embryonic stages were harvested into sterile 15 ml. centrifuge tubes and washed three times by centrifuging at 300 g for 10 minutes each with medium and the final pellet was suspended in 1 ml. of RPMI-1640 medium (Sigma R 8005) supplemented with 10% FBS (Sigma F 2442)
The number of embryonic stages of S. digitata in the above preparation were counted using light microscope, and the suspension was taken in RPMI-1640 medium containing 10% FBS at 1×10^5 embryonic stages/ml. One ml. each was dispensed into individual wells of a 24 well tissue culture plate. One set of wells was taken as untreated control containing only medium with 10% FBS. […] Motility of the Mf was scored under an inverted microscope.
After appropriate treatment and incubation, each set of the cultured embryonic stages of S. digitata were harvested from the 24 well tissue culture plate separately in 15 ml. sterile centrifuge tubes, washed with PBS twice and stained as per requirement following manufacturer's instructions as described below. This was followed by two times washing with PBS and final suspension of the stained embryonic stages was taken in 0.5 ml of sheath fluid (BD Biosciences 342003) before their acquisition in the flow cytometer (BD FACS Calibur, Becten and Dickinson, USA). Analysis was performed on 10,000-acquired events depicted as Dot Plots and Histogram Plots using Cellquest Pro soft ware. All plots were representative of at least 3 experiments. The distinctly clustered populations obtained consistently in the Dot plots for the intra uterine embryonic stages of S. digitata (FIG. 1 a) were gated for Mfs (R-1) and eggs (R-2 and R-3) and analyzed for different assays for apoptosis as described below.
The mitochondrial membrane potential (ΔΨm) was measured using JC-1 probe (a cataionic lipophilic fluorochrome that accumulates in mitochondria in proportion to mitochondrial membrane potential) supplied in mitoscreen JC-1 kit (BD Biosciences 551302). Briefly a suspension of in-vitro cultured embryonic stages at 1×10^5 embryonic stages/ml. was mixed with 0.5 ml of freshly prepared JC-1 working solution for 10-15 minutes at 37° C. in a CO2 incubator followed by two times washing and final suspension of the embryonic stages in 1× assay buffer (supplied with the kit) before acquisition and analysis by flow cytometry. Reduction of fluorescence intensity of the mitoscreen JC-1 stained embryonic stages was taken as the degree of depolarization of mitochondria.

Compound | GMI (Geometric Mean Intensity) of Fluorescence, CED-3 Expression ([1]; Eggs, 10 μM) | GMI (Geometric Mean Intensity) of Fluorescence, CED-3 Expression ([1]; Microfilariae, 10 μM) | GMI (Geometric Mean Intensity) of Fluorescence, Mitoscreen-jc-1 staining (Mitochondrial Depolarisation assay) ([2]; Eggs, 10 μM) | induction of mitochondrial depolarization (result in words) [2] | GMI (Geometric Mean Intensity) of Fluorescence, Mitoscreen-jc-1 staining (Mitochondrial Depolarisation assay) ([2]; Microfilariae, 10 μM) | GMI (Geometric Mean Intensity) of Fluorescence, CED-3 Expression ([1]; Eggs, 1 μM) | GMI (Geometric Mean Intensity) of Fluorescence, CED-3 Expression ([1]; Microfilariae, 1 μM) | GMI (Geometric Mean Intensity) of Fluorescence, Mitoscreen-jc-1 staining (Mitochondrial Depolarisation assay) ([2]; Eggs, 1 μM) | GMI (Geometric Mean Intensity) of Fluorescence, Mitoscreen-jc-1 staining (Mitochondrial Depolarisation assay) ([2]; Microfilariae, 1 μM)
CC1=CC(=O)c2c(O)cccc2C1=O [Plumbagin] | 205.26 and 207.37 and 200.17 | 32.75 and 34.96 and 31.33 | 970.16 and 1078.76 and 897.56 | dose dependent induction of mitochondrial depolarization was observed | 435.26 and 476.20 and 398.76 | – | – | – | –
OO [H2O2] | 98.25 and 100.22 and 97.56 | 10.99 and 12.38 and 9.95 | 1225.16 and 1165.12 and 1295.39 | dose dependent induction of mitochondrial depolarization was observed | 785.33 and 823.57 and 750.62 | – | – | – | –
CN[C@@H]1C[C@H]2O[C@@](C)([C@@H]1OC)n1c3ccccc3c3c4c(c5c6ccccc6n2c5c31)C(=O)NC4 [Staurosporine] | – | – | – | – | – | 92.71 and 96.07 and 90.32 | 8.33 and 8.10 and 7.39 | 1549.35 and 1500.65 and 1510.50 | 895.30 and 979.20 and 930.16
